Read-outs that look alike come from different tables or passages of the source.
Key:
Type in all cases: cell-based
E. faecalis = tested on: E. faecalis
E. cloacae = tested on: E. cloacae
S. marcescens = tested on: S. marcescens
S. epidermidis = tested on: S. epidermidis
A. calcoaceticus = tested on: A. calcoaceticus
P. aeruginosa = tested on: P. aeruginosa
E. coli = tested on: E. coli
K. pneumoniae = tested on: K. pneumoniae
S. maltophilia = tested on: S. maltophilia
S. aureus = tested on: S. aureus

Sequence	MIC (E. cloacae; E. cloacae strain ECL007)	MIC (S. marcescens; S. marcescens strain SMS003)	MIC (S. epidermidis; S. epidermidis strain SE010)	MIC (S. aureus; S. aureus strain SA093)	MIC (A. calcoaceticus; A. calcoaceticus strain AC002)	MIC (P. aeruginosa; P. aeruginosa strain PA004)	MIC (E. coli; E. coli strain ECO005)	MIC (K. pneumoniae; K. pneumoniae strain KP001)	MIC (E. faecalis; E. faecalis EFS001)	MIC (E. faecalis; E. faecalis EFS008)	MIC (E. cloacae; E. cloacae ECL007)	MIC (S. marcescens; S. marcescens SMS003)	MIC (S. epidermidis; S. epidermidis SE010)	MIC (A. calcoaceticus; A. calcoaceticus AC002)	MIC (P. aeruginosa; P. aeruginosa PA004)	MIC (E. coli; E. coli ECO005)	MIC (K. pneumoniae; K. pneumoniae KP001)	MIC (S. maltophilia; S. maltophilia SMA002)	MIC (S. aureus; S. aureus SA014)	MIC (S. aureus; S. aureus SA093)	also measured
ILRNPNNPNRRK [MBI 11B7ACN]	>128 mg/L	>128 mg/L	4 mg/L	1 mg/L	–	–	–	–	–	–	–	–	–	–	–	–	–	–	–	–	MIC (E. faecalis; E. faecalis strain EFS001, listed as MBI 11B7 ACN): 1 mg/L; MIC (E. faecalis; E. faecalis strain EFS008): 8 mg/L; MIC (A. calcoaceticus; A. calcoaceticus strain AC002, listed as MBI 11B7 ACN): 2 mg/L; MIC (P. aeruginosa; P. aeruginosa strain PA004, listed as MBI 11B7 ACN): 128 mg/L; MIC (E. coli; E. coli strain ECO005, listed as MBI 11B7 ACN): 8 mg/L; MIC (K. pneumoniae; K. pneumoniae strain KP001, listed as MBI 11B7 ACN): 8 mg/L; MIC (S. maltophilia; S. maltophilia strain SMA002, listed as MBI 11B7 ACN): 32 mg/L; MIC (S. aureus; S. aureus strain SA014): 2 mg/L
ILRRNPNNPNRRK [MBI 11B1CNW1]	64 mg/L	>128 mg/L	8 mg/L	–	16 mg/L	64 mg/L	32 mg/L	32 mg/L	–	–	–	–	–	–	–	–	–	–	–	–	MIC (E. faecalis; E. faecalis strain EFS004): 8 mg/L; MIC (S. maltophilia; S. maltophilia strain SMA002): 32 mg/L; MIC (S. aureus; S. aureus strain SA014): 16 mg/L
ILRRWVWWVWRRK [MBI 11F5CN]	–	–	–	–	–	–	–	–	2 mg/L	8 mg/L	128 mg/L	>128 mg/L	4 mg/L	4 mg/L	32 mg/L	8 mg/L	8 mg/L	16 mg/L	4 mg/L	2 mg/L	–
ILRWAWWPWRRK [MBI 11H05CN]	–	–	–	–	–	–	–	–	2 mg/L	8 mg/L	>128 mg/L	>128 mg/L	4 mg/L	4 mg/L	128 mg/L	8 mg/L	8 mg/L	16 mg/L	2 mg/L	1 mg/L	–
ILRWPAWPWRRK [MBI 11H06CN]	–	–	–	–	–	–	–	–	2 mg/L	16 mg/L	>128 mg/L	>128 mg/L	8 mg/L	8 mg/L	>128 mg/L	16 mg/L	64 mg/L	64 mg/L	8 mg/L	1 mg/L	–
ILRWPWAPWRRK [MBI 11H07CN]	–	–	–	–	–	–	–	–	4 mg/L	16 mg/L	>128 mg/L	>128 mg/L	16 mg/L	8 mg/L	>128 mg/L	32 mg/L	128 mg/L	128 mg/L	8 mg/L	2 mg/L	–
ILRWPWRRWPWRRK [MBI 11B19CN]	–	–	–	–	–	–	–	–	2 mg/L	32 mg/L	>128 mg/L	>128 mg/L	4 mg/L	4 mg/L	128 mg/L	8 mg/L	64 mg/L	32 mg/L	4 mg/L	2 mg/L	–
ILRWPWWAWRRK [MBI 11H08CN]	–	–	–	–	–	–	–	–	2 mg/L	8 mg/L	>128 mg/L	>128 mg/L	4 mg/L	4 mg/L	>128 mg/L	8 mg/L	32 mg/L	32 mg/L	4 mg/L	1 mg/L	–
ILRWPWWPARRK [MBI 11H09CN]	–	–	–	–	–	–	–	–	4 mg/L	64 mg/L	>128 mg/L	>128 mg/L	16 mg/L	4 mg/L	>128 mg/L	32 mg/L	64 mg/L	64 mg/L	8 mg/L	2 mg/L	–
ILRWPWWPWARK [MBI 11H10CN]	–	–	–	–	–	–	–	–	2 mg/L	8 mg/L	>128 mg/L	>128 mg/L	4 mg/L	4 mg/L	>128 mg/L	16 mg/L	16 mg/L	64 mg/L	4 mg/L	1 mg/L	–
ILRWPWWPWRAK [MBI 11H11CN]	–	–	–	–	–	–	–	–	2 mg/L	8 mg/L	>128 mg/L	>128 mg/L	4 mg/L	4 mg/L	>128 mg/L	16 mg/L	16 mg/L	64 mg/L	4 mg/L	1 mg/L	–
ILRWPWWPWRRA [MBI 11H12CN]	–	–	–	–	–	–	–	–	2 mg/L	8 mg/L	>128 mg/L	>128 mg/L	4 mg/L	4 mg/L	>128 mg/L	16 mg/L	16 mg/L	64 mg/L	2 mg/L	1 mg/L	–
ILRWPWWPWRRKDMILKKAGS [MBI 11B18CN]	>128 mg/L	>128 mg/L	4 mg/L	2 mg/L	2 mg/L	>128 mg/L	32 mg/L	32 mg/L	–	–	–	–	–	–	–	–	–	–	–	–	MIC (E. faecalis; E. faecalis strain EFS008): 4 mg/L; MIC (S. maltophilia; S. maltophilia strain SMA002): 64 mg/L
ILRWPWWPWRRKMILKKAGS [MBI 11B17CN]	>128 mg/L	>128 mg/L	4 mg/L	2 mg/L	2 mg/L	>128 mg/L	8 mg/L	16 mg/L	–	–	–	–	–	–	–	–	–	–	–	–	MIC (E. faecalis; E. faecalis strain EFS008): 4 mg/L; MIC (S. maltophilia; S. maltophilia strain SMA002): 32 mg/L
ILRWPWWPWWPWRRK [MBI 11A9CN]	128 mg/L	>128 mg/L	4 mg/L	2 mg/L	8 mg/L	128 mg/L	32 mg/L	32 mg/L	–	–	–	–	–	–	–	–	–	–	–	–	MIC (E. faecalis; E. faecalis strain EFS001): 2 mg/L; MIC (E. faecalis; E. faecalis strain EFS008): 8 mg/L; MIC (S. maltophilia; S. maltophilia strain SMA002): 32 mg/L; MIC (S. aureus; S. aureus strain SA014): 4 mg/L
ILRWWVWWVWWRRK [MBI 11F6CN]	–	–	–	–	–	–	–	–	16 mg/L	16 mg/L	64 mg/L	>128 mg/L	8 mg/L	16 mg/L	128 mg/L	32 mg/L	32 mg/L	64 mg/L	16 mg/L	8 mg/L	–
ILRYVYYVYRRK [MBI 11A8CN]	>128 mg/L	>128 mg/L	16 mg/L	1 mg/L	8 mg/L	>128 mg/L	32 mg/L	128 mg/L	–	–	–	–	–	–	–	–	–	–	–	–	MIC (E. faecalis; E. faecalis strain EFS001): 4 mg/L; MIC (S. maltophilia; S. maltophilia strain SMA002): 32 mg/L
KRRWPWWPWKKLI [MBI 11CNR]	–	–	–	–	–	–	–	–	4 mg/L	–	>128 mg/L	128 mg/L	4 mg/L	4 mg/L	32 mg/L	8 mg/L	4 mg/L	32 mg/L	–	4 mg/L	–
KRRWPWWPWRLI [MBI 11B7CNR]	64 mg/L	>128 mg/L	4 mg/L	2 mg/L	4 mg/L	64 mg/L	8 mg/L	8 mg/L	–	–	–	–	–	–	–	–	–	–	–	–	MIC (E. faecalis; E. faecalis strain EFS001): 4 mg/L; MIC (S. maltophilia; S. maltophilia strain SMA002): 32 mg/L
KRRWVWWVWRLI [MBI 11F4CNR]	32 mg/L	>128 mg/L	8 mg/L	8 mg/L	16 mg/L	64 mg/L	32 mg/L	32 mg/L	–	–	–	–	–	–	–	–	–	–	–	–	MIC (E. faecalis; E. faecalis strain EFS008): 32 mg/L; MIC (S. maltophilia; S. maltophilia strain SMA002): 32 mg/L
LRWPWWPW [MBI 11G26CN]	–	–	–	–	–	–	–	–	2 mg/L	4 mg/L	>128 mg/L	>128 mg/L	4 mg/L	2 mg/L	>128 mg/L	32 mg/L	32 mg/L	128 mg/L	4 mg/L	0.5 mg/L	–
LRWWWPWRRK [MBI 11G25CN]	–	–	–	–	–	–	–	–	2 mg/L	16 mg/L	>128 mg/L	>128 mg/L	2 mg/L	2 mg/L	64 mg/L	8 mg/L	16 mg/L	32 mg/L	2 mg/L	1 mg/L	–
LWPWWPWRRK [MBI 11G24CN]	–	–	–	–	–	–	–	–	2 mg/L	8 mg/L	>128 mg/L	>128 mg/L	4 mg/L	4 mg/L	128 mg/L	16 mg/L	16 mg/L	32 mg/L	2 mg/L	1 mg/L	–

Source: patent US20020035061A1, “COMPOSITIONS AND METHODS FOR TREATING INFECTIONS USING CATIONIC PEPTIDES ALONE OR IN COMBINATION WITH ANTIBIOTICS” (priority 1996, published 2002)
